The experiment addresses T1, Cbl-b (Homo sapiens, UniProt Q13191).
T1 construct: Cbl-b-HiBit KI Jurkat Cells were purchased from Promega; host or cells: Cbl-b-HiBiT knock-in Jurkat cells
In words: Cbl-b Degradation Method B (Nano-Glo HiBiT lytic detection). The format is cell-based. The conditions noted are these: Cbl-b-HiBit KI Jurkat Cells, incubated at least 6-24 hours; for DC50: half maximal degradation, read-out: Cbl-b Degredation Method B IC50; for Dmax: maximum degradation observed, read-out: Cbl-b Degredation Method B Dmax (%). Here is the method:
Cbl-b Degradation Method B [table] Cbl-b-HiBit KI Jurkat Cells were purchased from Promega, and cell media consisted of RPMI 1640 with 10% […] and 1% pen/strep. The cells were counted, measured for viability, and 35 μL of the cell solution was seeded into 384 well flat bottom plates at a ratio of 20,000 cells per 35 μL. After which, the plates were incubated for ˜24 hours at 37° C. and 5% CO2. Compounds were ordered from Evotec in a 384 well plate at a 1 mM top concentration in DMSO and serially diluted 1:3 in DMSO for an 11-point dose response. Using the Bravo instrument, 1 uL of compound solution or DMSO was transferred to 125 uL of media. Each well was treated with 5 μL of compound plus media mixture or DMO and subsequently incubated for at least 6-24 hours at 37° C. and 5% CO2. After incubation, 30 μL of either NanoGlo media was added to each cell, and the plates read on the Synergy Neo2 machine. The concentration of an exemplary compound that leads to half maximal degradation (DC50) as well as the maximum degradation observed (Dmax, conventionally expressed as a percentage of control) is shown below in Table 2.

T1 sequence (Q13191 whole entry): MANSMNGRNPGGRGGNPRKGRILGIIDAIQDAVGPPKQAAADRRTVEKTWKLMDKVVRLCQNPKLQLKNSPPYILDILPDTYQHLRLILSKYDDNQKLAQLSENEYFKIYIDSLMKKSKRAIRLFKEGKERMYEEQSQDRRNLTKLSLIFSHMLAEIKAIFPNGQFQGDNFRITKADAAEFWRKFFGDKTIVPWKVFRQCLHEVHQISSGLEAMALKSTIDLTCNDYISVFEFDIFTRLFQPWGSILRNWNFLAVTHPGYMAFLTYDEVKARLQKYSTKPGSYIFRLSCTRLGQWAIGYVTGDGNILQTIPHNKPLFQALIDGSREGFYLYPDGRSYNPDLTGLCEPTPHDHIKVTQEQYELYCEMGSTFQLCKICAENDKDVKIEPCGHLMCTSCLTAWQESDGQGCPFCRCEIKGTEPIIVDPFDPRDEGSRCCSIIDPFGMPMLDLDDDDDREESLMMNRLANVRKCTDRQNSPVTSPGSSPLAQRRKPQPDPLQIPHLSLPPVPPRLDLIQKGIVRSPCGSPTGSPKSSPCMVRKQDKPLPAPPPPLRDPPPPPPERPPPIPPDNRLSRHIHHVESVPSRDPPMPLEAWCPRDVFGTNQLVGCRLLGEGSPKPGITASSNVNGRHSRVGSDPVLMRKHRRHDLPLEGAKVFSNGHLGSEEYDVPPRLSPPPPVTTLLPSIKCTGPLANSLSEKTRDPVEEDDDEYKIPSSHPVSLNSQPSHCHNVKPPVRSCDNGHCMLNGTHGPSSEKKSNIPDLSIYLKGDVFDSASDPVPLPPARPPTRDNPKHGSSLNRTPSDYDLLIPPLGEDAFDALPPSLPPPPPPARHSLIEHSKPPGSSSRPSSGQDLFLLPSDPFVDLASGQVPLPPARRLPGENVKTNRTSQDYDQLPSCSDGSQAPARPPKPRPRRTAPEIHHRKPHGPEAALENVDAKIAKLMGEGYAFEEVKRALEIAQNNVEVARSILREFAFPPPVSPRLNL

On to `C[C@@H]1c2nc(N3CCC(O[C@H]4CC[C@H](CN5CCN(Cc6cc7c(c(C(F)(F)F)c6)CN(c6cccc(C8(Cc9nncn9C)CC(C#N)C8)c6)C7=O)C6(CC6)C5)CC4)CC3)ccc2C(=O)N1C1CCC(=O)NC1=O` (single isomer, unassigned) [Example 305, (1r***,3r***)-3-[(4-methyl-4H-1,2,4-triazol-3-yl)methyl]-3-(3-{1-oxo-6-[(7-{[(1r**,4r**)-4-({1-[(7R*)-6-(2,6-dioxopiperidin-3-yl)-7-methyl-5-oxo-5H,6H,7H-pyrrolo[3,4-b]pyridin-2-yl]piperidin-4-yl}oxy)cyclohexyl]methyl}-4,7-diazaspiro[2.5]octan-4-yl)methyl]-4-(trifluoromethyl)-2,3-dihydro-1H-isoindol-2-yl}phenyl)cyclobutane-1-carbonitrile], for which the DC50 was more than 500 nM.

Regarding `C[C@@H]1c2nc(N3CCC(O[C@H]4CC[C@H](CN5CCN(Cc6cc7c(c(C(F)(F)F)c6)CN(c6cccc(C8(Cc9nncn9C)CC(C#N)C8)c6)C7=O)C(C)(C)C5)CC4)CC3)ccc2C(=O)N1C1CCC(=O)NC1=O` (single isomer, unassigned) [Example 308, (1r***,3r***)-3-(3-{6-[(2,2-dimethyl-4-{[(1r**,4r**)-4-({1-[(7R*)-6-(2,6-dioxopiperidin-3-yl)-7-methyl-5-oxo-5H,6H,7H-pyrrolo[3,4-b]pyridin-2-yl]piperidin-4-yl}oxy)cyclohexyl]methyl}piperazin-1-yl)methyl]-1-oxo-4-(trifluoromethyl)-2,3-dihydro-1H-isoindol-2-yl}phenyl)-3-[(4-methyl-4H-1,2,4-triazol-3-yl)methyl]cyclobutane-1-carbonitrile], the DC50 is more than 500 nM.

In the case of `C[C@@H]1c2nc(N3CCC(O[C@H]4CC[C@H](CN5CCN(Cc6cc7c(c(C(F)(F)F)c6)CN(c6cccc(C8(Cc9nncn9C)CC(C#N)C8)c6)C7=O)C(C)(C)C5)CC4)CC3)ccc2C(=O)N1C1CCC(=O)NC1=O` (single isomer, unassigned) [Example 309, (1r***,3r***)-3-(3-{6-[(2,2-dimethyl-4-{[(1r**,4r**)-4-({1-[(7R*)-6-(2,6-dioxopiperidin-3-yl)-7-methyl-5-oxo-5H,6H,7H-pyrrolo[3,4-b]pyridin-2-yl]piperidin-4-yl}oxy)cyclohexyl]methyl}piperazin-1-yl)methyl]-1-oxo-4-(trifluoromethyl)-2,3-dihydro-1H-isoindol-2-yl}phenyl)-3-[(4-methyl-4H-1,2,4-triazol-3-yl)methyl]cyclobutane-1-carbonitrile], the DC50 is more than 500 nM.

As for `C[C@@H]1c2nc(N3CCC(O[C@H]4CC[C@H](CN5CCN(Cc6cc7c(c(C(F)(F)F)c6)CN(c6cccc(C8(Cc9nncn9C)CC(C#N)C8)c6)C7=O)CC5(C)C)CC4)CC3)ccc2C(=O)N1C1CCC(=O)NC1=O` (single isomer, unassigned) [Example 313, (1r***,3r***)-3-(3-{6-[(3,3-dimethyl-4-{[(1r**,4r**)-4-({1-[(7R*)-6-(2,6-dioxopiperidin-3-yl)-7-methyl-5-oxo-5H,6H,7H-pyrrolo[3,4-b]pyridin-2-yl]piperidin-4-yl}oxy)cyclohexyl]methyl}piperazin-1-yl)methyl]-1-oxo-4-(trifluoromethyl)-2,3-dihydro-1H-isoindol-2-yl}phenyl)-3-[(4-methyl-4H-1,2,4-triazol-3-yl)methyl]cyclobutane-1-carbonitrile], the DC50 was more than 500 nM.

As for `Cc1cc(N2CCC(CN3CCC4(CC3)CN(c3cc5c(c(C(F)(F)F)c3)CN(c3cccc(C6(Cc7nncn7C)COC6)c3)C5=O)C4)CC2)c(F)c2c1C(=O)N(C1CCC(=O)NC1=O)C2` (centres unmarked) [Example 12, 3-{4-fluoro-7-methyl-5-[4-({2-[2-(3-{3-[(4-methyl-4H-1,2,4-triazol-3-yl)methyl]oxetan-3-yl}phenyl)-3-oxo-7-(trifluoromethyl)-2,3-dihydro-1H-isoindol-5-yl]-2,7-diazaspiro [3.5]nonan-7-yl}methyl)piperidin-1-yl]-1-oxo-2,3-dihydro-1H-isoindol-2-yl}piperidine-2,6-dione], the DC50 was less than 5 nM and the greatest degradation seen (Dmax) – broadly, the largest share of the target that was removed – was more than 70%.

For the molecule `Cn1cnnc1C[C@]1(c2cccc(N3Cc4c(cc(CN5CCN(C[C@H]6CC[C@H](OC7CCN(c8ccc9c(c8F)CN(C8CCC(=O)NC8=O)C9=O)CC7)CC6)CC5)cc4C(F)(F)F)C3=O)c2)C[C@@H](C#N)C1` (some centres unmarked) [Example 14, (1s, 3s)-3-[(4-methyl-4H-1,2,4-triazol-3-yl)methyl]-3-(3-{1-oxo-6-[(4-{[(1r, 4r)-4-({1-[2-(2,6-dioxopiperidin-3-yl)-4-fluoro-1-oxo-2,3-dihydro-1H-isoindol-5-yl]piperidin-4-yl}oxy)cyclohexyl]methyl}piperazin-1-yl)methyl]-4-(trifluoromethyl)-2,3-dihydro-1H-isoindol-2-yl}phenyl)cyclobutane-1-carbonitrile], the DC50 is less than 5 nM and the maximal degradation (Dmax) was 35 to 70%.

Regarding `Cn1cnnc1CC1(c2cccc(N3Cc4c(cc(CN5CCN(C[C@H]6CC[C@H](OC7CCN(c8ccc9c(c8Cl)CN(C8CCC(=O)NC8=O)C9=O)CC7)CC6)CC5)cc4C(F)(F)F)C3=O)c2)COC1` (some centres unmarked) [Example 24, 3-[4-chloro-1-oxo-5-(4-{[(1r,4r)-4-[(4-{[2-(3-{3-[(4-methyl-4H-1,2,4-triazol-3-yl)methyl]oxetan-3-yl}phenyl)-3-oxo-7-(trifluoromethyl)-2,3-dihydro-1H-isoindol-5-yl]methyl}piperazin-1-yl)methyl]cyclohexyl]oxy}piperidin-1-yl)-2,3-dihydro-1H-isoindol-2-yl]piperidine-2,6-dione], the DC50 is less than 5 nM and the maximal degradation (Dmax) is more than 70%.

In the case of `Cn1cnnc1CC1(c2cccc(N3Cc4c(cc(CN5CCC(C6CCN(c7ccc8c(c7)C(=O)N(C7CCC(=O)NC7=O)C8=O)CC6)CC5)cc4C(F)(F)F)C3=O)c2)COC1` (centres unmarked) [Example 26, 2-(2,6-dioxopiperidin-3-yl)-5-(1′-{[2-(3-{3-[(4-methyl-4H-1,2,4-triazol-3-yl)methyl]oxetan-3-yl}phenyl)-3-oxo-7-(trifluoromethyl)-2,3-dihydro-1H-isoindol-5-yl]methyl}-[4,4′-bipiperidin]-1-yl)-2,3-dihydro-1H-isoindole-1,3-dione], the DC50 was more than 500 nM.

Regarding `Cn1cnnc1CC1(c2cccc(N3Cc4c(cc(CN5CCC6(CC5)CCN(c5ccc7c(c5)C(=O)N(C5CCC(=O)NC5=O)C7=O)CC6)cc4C(F)(F)F)C3=O)c2)COC1` (centres unmarked) [Example 27, 2-(2,6-dioxopiperidin-3-yl)-5-(9-{[2-(3-{3-[(4-methyl-4H-1,2,4-triazol-3-yl)methyl]oxetan-3-yl}phenyl)-3-oxo-7-(trifluoromethyl)-2,3-dihydro-1H-isoindol-5-yl]methyl}-3,9-diazaspiro[5.5]undecan-3-yl)-2,3-dihydro-1H-isoindole-1,3-dione], the DC50 is more than 500 nM.

Take `Cn1cnnc1CC1(c2cccc(N3Cc4c(cc(CN5CCN(c6ccc7c(c6)C(=O)N(C6CCC(=O)NC6=O)C7=O)CC5)cc4C(F)(F)F)C3=O)c2)COC1` (centres unmarked) [Example 32, 2-(2,6-dioxopiperidin-3-yl)-5-(4-{[2-(3-{3-[(4-methyl-4H-1,2,4-triazol-3-yl)methyl]oxetan-3-yl}phenyl)-3-oxo-7-(trifluoromethyl)-2,3-dihydro-1H-isoindol-5-yl]methyl}piperazin-1-yl)-2,3-dihydro-1H-isoindole-1,3-dione]: the DC50 was 50 to 500 nM and the Dmax is more than 70%.

Consider `Cn1cnnc1CC1(c2cccc(N3Cc4c(cc(CN5CCC(c6ccc7c(c6)C(=O)N(C6CCC(=O)NC6=O)C7=O)CC5)cc4C(F)(F)F)C3=O)c2)COC1` (centres unmarked) [Example 33, 2-(2,6-dioxopiperidin-3-yl)-5-(1-{[2-(3-{3-[(4-methyl-4H-1,2,4-triazol-3-yl)methyl]oxetan-3-yl}phenyl)-3-oxo-7-(trifluoromethyl)-2,3-dihydro-1H-isoindol-5-yl]methyl}piperidin-4-yl)-2,3-dihydro-1H-isoindole-1,3-dione], for which the DC50 is more than 500 nM.

Turning to `Cn1cnnc1CC1(c2cccc(N3Cc4c(cc(CN5CCC(c6ccc7c(c6)CN(C6CCC(=O)NC6=O)C7=O)CC5)cc4C(F)(F)F)C3=O)c2)COC1` (centres unmarked) [Example 34, 3-[5-(1-{[2-(3-{3-[(4-methyl-4H-1,2,4-triazol-3-yl)methyl]oxetan-3-yl}phenyl)-3-oxo-7-(trifluoromethyl)-2,3-dihydro-1H-isoindol-5-yl]methyl}piperidin-4-yl)-1-oxo-2,3-dihydro-1H-isoindol-2-yl]piperidine-2,6-dione], the DC50 was more than 500 nM.

With `Cn1cnnc1CC1(c2cccc(N3Cc4c(cc(CN5CCN(c6ccc(C(=O)NC7CCC(=O)NC7=O)c(F)c6)CC5)cc4C(F)(F)F)C3=O)c2)COC1` (centres unmarked) [Example 35, N-(2,6-dioxopiperidin-3-yl)-2-fluoro-4-(4-{[2-(3-{3-[(4-methyl-4H-1,2,4-triazol-3-yl)methyl]oxetan-3-yl}phenyl)-3-oxo-7-(trifluoromethyl)-2,3-dihydro-1H-isoindol-5-yl]methyl}piperazin-1-yl)benzamide], the DC50 is more than 500 nM.

For the origin of these results see US20260184710A1, “CASITAS B-LINEAGE LYMPHOMA PROTOONCOGENE B (CBL-B) DEGRADING COMPOUNDS AND ASSOCIATED METHODS OF USE” (Arvinas Operations, Inc., priority 2022, published 2026).
